In ChEMBL document CHEMBL2176989, “Design, synthesis, and pharmacological evaluation of piperidin-4-yl amino aryl sulfonamides: novel, potent, selective, orally active, and brain penetrant 5-HT₆ receptor antagonists” (J Med Chem, 2012):

Columns and labels:
[1] = AUC (0 to 24 hrs) in Wistar rat at 5 mg/kg, iv; assay type: ADME, organism-based; set-up: time < 24 hr, dose 5 mg/kg, route intravenous; settings: plasma
[2] = Drug metabolism in Wistar rat liver microsomes at 2.5 uM at 30 mins by LC-MS/MS analysis; assay type: ADME, Microsome; settings: read-out: Drug metabolism
[3] = Apparent volume of distribution in Wistar rat at 5 mg/kg, iv; assay type: ADME, organism-based; set-up: dose 5 mg/kg, route intravenous; settings: in vivo, read-out: Vz
[4] = target: 5-hydroxytryptamine receptor 6 (Homo sapiens) (UniProt P50406); assay: Antagonist activity at human recombinant 5HT6 receptor expressed in CHO cells assessed as inhibition of 5HT-induced luciferase activity after 4 hrs by reporter gene assay; assay type: functional, cell-based
Chain of 5-hydroxytryptamine receptor 6 (Homo sapiens) (P50406 whole entry): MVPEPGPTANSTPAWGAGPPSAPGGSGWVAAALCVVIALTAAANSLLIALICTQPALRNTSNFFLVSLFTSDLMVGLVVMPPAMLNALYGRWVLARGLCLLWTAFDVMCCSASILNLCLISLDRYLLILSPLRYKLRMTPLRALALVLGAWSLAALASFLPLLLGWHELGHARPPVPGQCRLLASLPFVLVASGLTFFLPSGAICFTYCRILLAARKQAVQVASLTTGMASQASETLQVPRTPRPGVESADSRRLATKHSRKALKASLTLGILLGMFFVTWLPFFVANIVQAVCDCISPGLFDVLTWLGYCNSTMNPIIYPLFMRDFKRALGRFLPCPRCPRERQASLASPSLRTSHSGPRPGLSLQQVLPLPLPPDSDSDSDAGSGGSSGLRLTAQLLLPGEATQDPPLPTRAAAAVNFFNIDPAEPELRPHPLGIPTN

[5] = Tmax in fasted Wistar rat at 10 mg/kg, po; assay type: ADME, organism-based; set-up: dose 10 mg/kg, route oral; settings: in vivo
[6] = Ratio of drug uptake in brain to plasma in Wistar rat at 10 mg/kg, po after 1 hr; assay type: ADME, organism-based; set-up: dose 10 mg/kg, route oral; settings: read-out: BPR
[7] = Clearance in Wistar rat at 5 mg/kg, iv; assay type: ADME, organism-based; set-up: dose 5 mg/kg, route intravenous; settings: in vivo
[8] = Cmax in fasted Wistar rat at 10 mg/kg, po; assay type: ADME, organism-based; set-up: dose 10 mg/kg, route oral; settings: in vivo
[9] = Drug metabolism in human liver microsomes at 2.5 uM at 30 mins by LC-MS/MS analysis; assay type: ADME, Microsome; settings: read-out: Drug metabolism
[10] = Half life in Wistar rat at 5 mg/kg, iv; assay type: ADME, organism-based; set-up: dose 5 mg/kg, route intravenous; settings: in vivo
[11] = Oral bioavailability in fasted Wistar rat at 10 mg/kg; assay type: ADME, organism-based; settings: in vivo
Cytochrome P450 2D6 = Cytochrome P450 2D6 (Homo sapiens, UniProt P10635); assay: Inhibition of CYP2D6 in human liver microsomes using dextromethorphan as substrate after 10 mins by LC-MS/MS analysis in presence of NADPH
Chain of Cytochrome P450 2D6 (P10635 whole entry): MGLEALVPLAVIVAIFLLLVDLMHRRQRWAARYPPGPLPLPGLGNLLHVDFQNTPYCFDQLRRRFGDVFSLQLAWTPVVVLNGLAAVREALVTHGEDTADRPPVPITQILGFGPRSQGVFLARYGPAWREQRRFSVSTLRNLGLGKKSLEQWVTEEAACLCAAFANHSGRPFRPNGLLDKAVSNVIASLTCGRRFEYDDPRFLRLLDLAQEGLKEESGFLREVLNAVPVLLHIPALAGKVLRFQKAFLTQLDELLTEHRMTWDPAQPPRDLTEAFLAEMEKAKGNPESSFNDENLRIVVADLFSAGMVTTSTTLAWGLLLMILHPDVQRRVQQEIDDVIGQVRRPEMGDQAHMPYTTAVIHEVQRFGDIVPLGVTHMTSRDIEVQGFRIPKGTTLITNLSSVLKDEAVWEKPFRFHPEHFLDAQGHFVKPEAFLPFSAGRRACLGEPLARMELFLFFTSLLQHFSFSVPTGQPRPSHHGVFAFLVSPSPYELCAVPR

[12] = AUC (0 to 24 hrs) in fasted Wistar rat at 10 mg/kg, po; assay type: ADME, organism-based; set-up: time < 24 hr, dose 10 mg/kg, route oral; settings: plasma
[13] = target: 5-hydroxytryptamine receptor 6 (Homo sapiens) (UniProt P50406); assay: Antagonist activity at human recombinant 5HT6 receptor expressed in CHO cells assessed as inhibition of 5HT-induced luciferase activity after 4 hrs by reporter gene assay relative to control; assay type: functional, cell-based
[14] = target: Voltage-gated inwardly rectifying potassium channel KCNH2 (Homo sapiens, UniProt Q12809); assay: Displacement of [3H]astemizole from human ERG by microbeta scintillation counting
Chain of Voltage-gated inwardly rectifying potassium channel KCNH2 (Q12809 whole entry): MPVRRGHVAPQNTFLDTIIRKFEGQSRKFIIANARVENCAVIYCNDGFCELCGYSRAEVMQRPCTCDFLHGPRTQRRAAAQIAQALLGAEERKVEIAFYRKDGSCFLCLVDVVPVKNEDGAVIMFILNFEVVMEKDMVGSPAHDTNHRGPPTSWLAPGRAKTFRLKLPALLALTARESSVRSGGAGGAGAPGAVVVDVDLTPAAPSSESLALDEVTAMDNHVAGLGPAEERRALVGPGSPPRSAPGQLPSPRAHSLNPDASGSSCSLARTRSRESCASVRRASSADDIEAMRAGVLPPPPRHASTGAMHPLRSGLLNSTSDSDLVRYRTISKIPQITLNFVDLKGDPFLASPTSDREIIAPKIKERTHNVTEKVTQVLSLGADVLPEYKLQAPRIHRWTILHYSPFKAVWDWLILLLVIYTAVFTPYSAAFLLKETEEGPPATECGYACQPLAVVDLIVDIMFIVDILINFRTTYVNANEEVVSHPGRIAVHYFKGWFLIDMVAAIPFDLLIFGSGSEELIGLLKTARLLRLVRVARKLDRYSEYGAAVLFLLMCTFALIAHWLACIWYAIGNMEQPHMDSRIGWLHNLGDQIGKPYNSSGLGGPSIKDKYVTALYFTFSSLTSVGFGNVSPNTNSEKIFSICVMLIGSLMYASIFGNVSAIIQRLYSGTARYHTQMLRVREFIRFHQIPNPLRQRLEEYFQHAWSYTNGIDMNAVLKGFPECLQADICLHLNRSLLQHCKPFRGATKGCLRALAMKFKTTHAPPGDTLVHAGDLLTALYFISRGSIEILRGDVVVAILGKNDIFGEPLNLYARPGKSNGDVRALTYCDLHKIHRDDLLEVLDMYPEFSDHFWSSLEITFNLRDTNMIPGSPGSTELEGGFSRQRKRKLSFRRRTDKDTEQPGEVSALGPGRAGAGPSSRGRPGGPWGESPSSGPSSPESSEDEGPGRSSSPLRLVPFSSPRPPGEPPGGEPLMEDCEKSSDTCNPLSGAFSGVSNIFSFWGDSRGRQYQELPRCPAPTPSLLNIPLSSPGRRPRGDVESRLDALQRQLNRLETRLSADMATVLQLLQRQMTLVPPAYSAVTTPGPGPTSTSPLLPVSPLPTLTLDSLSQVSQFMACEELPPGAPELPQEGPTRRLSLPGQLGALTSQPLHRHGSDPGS

Row | Compound | Kb [4] | Imax [13] | also measured
1 | Cc1nn(S(=O)(=O)c2ccc(F)c(NC3CCN(C)CC3)c2)c2ccc(Cl)cc12 | 10.1 nM | 59% | –
2 | COc1ccc(S(=O)(=O)n2ccc3cc(F)ccc32)cc1NC1CCN(C)CC1 | 1.8 nM | 100% | –
3 | COc1ccc2c(ccn2S(=O)(=O)c2cccc(NC3CCN(C)CC3)c2)c1 | 12.5 nM | 96% | –
4 | COc1ccc2ccn(S(=O)(=O)c3ccc(C)c(NC4CCN(C)CC4)c3)c2c1 | 0.25 nM | 98% | –
5 | COc1ccc(S(=O)(=O)N2CCOc3ccc(C)cc32)cc1NC1CCN(C)CC1 | 0.1 nM | 100% | –
6 | COc1ccc(S(=O)(=O)N2CCOc3ccc(C(F)(F)F)cc32)cc1NC1CCN(C)CC1 | 0.1 nM | 100% | –
7 | COc1ccc(S(=O)(=O)N2CCc3ccccc3C2)cc1NC1CCN(C)CC1 | 0.07 nM | 98% | Kp at 1 h [6]: 0.24
8 | CN1CCC(Nc2cccc(S(=O)(=O)n3ccc4ccc(Cl)cc43)c2)CC1 | 2.39 nM | 98% | –
9 | Cc1cn(S(=O)(=O)c2ccc(F)c(NC3CCN(C)CC3)c2)c2ccccc12 | 0.52 nM | 100% | –
10 | Cc1cn(S(=O)(=O)c2cccc(NC3CCN(C)CC3)c2)c2ncc(Cl)cc12 | 4 nM | 99% | –
11 | COc1ccc(S(=O)(=O)n2cc(C)c3ccc(Cl)cc32)cc1NC1CCN(C)CC1 | 0.1 nM | 100% | –
12 | COc1ccc(S(=O)(=O)N2CCOc3ccccc32)cc1NC1CCN(C)CC1 | 0.2 nM | 100% | Ki [14]: > 10000 nM
13 | COc1ccc2c(ccn2S(=O)(=O)c2ccc(F)c(NC3CCN(C)CC3)c2)c1 | 11.7 nM | 95% | –
14 | Cc1ccc(S(=O)(=O)n2ccc3cc(F)ccc32)cc1NC1CCN(C)CC1 | 7.5 nM | 97% | –
15 | CN1CCC(Nc2cc(S(=O)(=O)n3ccc4ccccc43)ccc2F)CC1 | 1.6 nM | 100% | –
16 | CN1CCC(Nc2cccc(S(=O)(=O)n3ccc4cc(Br)ccc43)c2)CC1 | 10.3 nM | 98% | –
17 | CCc1ccc(S(=O)(=O)n2ccc3ccccc32)cc1NC1CCN(C)CC1 | 1.39 nM | 99% | –
18 | COc1ccc2ccn(S(=O)(=O)c3ccc(Cl)c(NC4CCN(C)CC4)c3)c2c1 | 3.3 nM | 100% | –
19 | COc1ccc(S(=O)(=O)N2CC(C)(C)Oc3ccc(F)cc32)cc1NC1CCN(C)CC1 | 0.1 nM | 100% | –
20 | COc1ccc(S(=O)(=O)n2ccc3cc(F)ccc32)cc1NC1CCNCC1 | 0.3 nM | 100% | –
21 | COc1ccc(S(=O)(=O)n2ccc3cc(Br)ccc32)cc1NC1CCNCC1 | 3.2 nM | 99% | –
22 | CCc1ccc(S(=O)(=O)n2ccc3ccc(Cl)cc32)cc1NC1CCN(C)CC1 | 5.3 nM | 98% | –
23 | COc1ccc(S(=O)(=O)n2ccc3cc(Cl)cnc32)cc1NC1CCN(C)CC1 | 0.15 nM | 98% | –
24 | COc1ccc(S(=O)(=O)n2cc(C)c3cc(F)ccc32)cc1NC1CCN(C)CC1 | 0.52 nM | 100% | Ki [14]: 950 nM
25 | COc1ccc(S(=O)(=O)n2ccc3cc(Cl)ccc32)cc1NC1CCN(C)CC1 | 4.37 nM | 98% | –
26 | COc1ccc(S(=O)(=O)n2ccc3ccc(F)cc32)cc1NC1CCNCC1 | 0.3 nM | 100% | –
27 | Cc1nn(S(=O)(=O)c2ccc(Cl)c(NC3CCN(C)CC3)c2)c2ccc(Cl)cc12 | 28.6 nM | 39% | –
28 | COc1ccc(S(=O)(=O)n2ccc3cc(Br)ccc32)cc1NC1CCN(C)CC1 | 1.91 nM | 97% | –

More lines, main results first:

Row | Kb [4] | Imax [13] | Compound | also measured
29 | 0.6 nM | 100% | COc1ccc(S(=O)(=O)n2nc(C)c3cc(Cl)ccc32)cc1NC1CCN(C)CC1.O=C(O)C(O)C(O)C(=O)O | AUC(0-t) at 24 h [1]: 600 ng·h/mL; metabolised at 0.5 h, 2.5 µM [2]: 69%; Vd [3]: 16 L/kg; Tmax [5]: 2 h; Kp at 1 h [6]: 0.5; clearance [7]: 143 mL/min/kg; Cmax [8]: 57 ng/mL; metabolised at 0.5 h, 2.5 µM [9]: 60%; half-life [10]: 1.7 h; bioavailability [11]: 25%; IC50 (Cytochrome P450 2D6): 14500 nM; AUC(0-t) at 24 h [12]: 300 ng·h/mL
30 | 18.3 nM | 95% | CCc1ccc(S(=O)(=O)n2ccc3cc(F)ccc32)cc1NC1CCN(C)CC1 | –
31 | 1.3 nM | 85% | COc1ccc(S(=O)(=O)n2cc(C)c3cc(Cl)ncc32)cc1NC1CCN(C)CC1 | –
32 | 0.06 nM | 100% | COc1ccc(S(=O)(=O)N2CCCc3ccccc32)cc1NC1CCN(C)CC1 | Kp at 1 h [6]: 0.02
33 | 0.1 nM | 100% | COc1ccc(S(=O)(=O)N2CCOc3ccc(Cl)cc32)cc1NC1CCN(C)CC1 | AUC(0-t) at 24 h [1]: 1450 ng·h/mL; metabolised at 0.5 h, 2.5 µM [2]: 85%; Vd [3]: 2.5 L/kg; Tmax [5]: 0.5 h; Kp at 1 h [6]: 0.6; clearance [7]: 58 mL/min/kg; Cmax [8]: 197 ng/mL; metabolised at 0.5 h, 2.5 µM [9]: 70%; half-life [10]: 0.7 h; bioavailability [11]: 12%; AUC(0-t) at 24 h [12]: 384 ng·h/mL
34 | 1.7 nM | 98% | COc1ccc(S(=O)(=O)n2cc(C)c3nc(Cl)ccc32)cc1NC1CCN(C)CC1 | –
35 | 1.2 nM | 100% | COc1ccc2ccn(S(=O)(=O)c3cccc(NC4CCN(C)CC4)c3)c2c1 | –
36 | 12 nM | 90% | COc1cnc2c(ccn2S(=O)(=O)c2ccc(OC)c(NC3CCN(C)CC3)c2)c1 | –
37 | 2.3 nM | 95% | COc1cnc2c(c1)c(C)cn2S(=O)(=O)c1ccc(OC)c(NC2CCN(C)CC2)c1 | –
38 | 16 nM | 94% | CN1CCC(Nc2cc(S(=O)(=O)n3ccc4cc(Br)ccc43)ccc2F)CC1 | –
39 | 0.2 nM | 100% | COc1ccc(S(=O)(=O)n2ccc3ccc(F)cc32)cc1NC1CCN(C)CC1 | –
40 | 3.19 nM | 92% | CN1CCC(Nc2cccc(S(=O)(=O)n3ccc4ccccc43)c2)CC1 | –
41 | 12.8 nM | 90% | CCc1ccc(S(=O)(=O)n2ccc3c(Cl)cccc32)cc1NC1CCN(C)CC1 | –
42 | 0.14 nM | 100% | COc1ccc(S(=O)(=O)n2ccc3ccc(Cl)cc32)cc1NC1CCN(C)CC1 | –
43 | 0.1 nM | 100% | COc1ccc(S(=O)(=O)N2CCCc3ccccc32)cc1NC1CCNCC1 | –
44 | 51.3 nM | 70% | COc1ccc2c(ccn2S(=O)(=O)c2ccc(C)c(NC3CCN(C)CC3)c2)c1 | –
45 | 3.8 nM | 96% | COc1ccc2c(ccn2S(=O)(=O)c2ccc(OC)c(NC3CCN(C)CC3)c2)c1 | –
46 | 1.22 nM | 100% | COc1ccc(S(=O)(=O)n2ccc3ccccc32)cc1NC1CCN(C)CC1 | –
47 | 0.1 nM | 97% | COc1ccc(S(=O)(=O)n2cc(C)c3cc(Cl)cnc32)cc1NC1CCNCC1 | –
48 | 2.2 nM | 100% | COc1ccc(S(=O)(=O)n2ccc3cc(OC(C)C)ccc32)cc1NC1CCN(C)CC1 | –
49 | 0.1 nM | 100% | COc1ccc2c(C)cn(S(=O)(=O)c3ccc(OC)c(NC4CCN(C)CC4)c3)c2c1 | –
50 | 0.1 nM | 100% | COc1ccc(S(=O)(=O)N2CCOc3ccc(F)cc32)cc1NC1CCN(C)CC1 | –
51 | 3.9 nM | 97% | Cc1ccc(S(=O)(=O)n2cc(C)c3cc(Cl)cnc32)cc1NC1CCN(C)CC1 | –
52 | 0.1 nM | 100% | COc1ccc2ccn(S(=O)(=O)c3ccc(OC)c(NC4CCN(C)CC4)c3)c2c1.O=P(O)(O)O | Kp at 1 h [6]: 0.6
